The subject of data set [1] is healthy male subjects. Kind of data set: Phase I human trial: safety. The data set is classed as in vivo. An excerpt: (§1) Part 1: A Phase I, double blind, randomized, single dose, placebo controlled, dose escalation study with 4 groups of 8 subjects (Groups 1-4). In each group 6 subjects were randomized to active medication and 2 to placebo. The first group received a single intravenous injection of EA-230 or placebo. After all subjects had completed Day 7 assessments, the safety review board decided on continuation of the study until the maximum tolerated dose had been assessed or the highest dose. Placebo subjects were pooled for analysis.
(§2) Part 2: A Phase I, double blind, randomized, single dose, placebo controlled study. The second part consisted of 1 group of 12 subjects (Group 5). All twelve subjects received LPS (4 ng/kg E. coli EC6) as a 2-minute injection, 30 minutes prior to EA-230 administration. […] Cytokines profiles were assessed to establish the effect of EA-230 on inflammatory parameters.
Adverse events (AEs), vital signs, ECG, hematology, clinical chemistry, and urinalysis.
Incidence of treatment emergent AEs and treatment emergent treatment related AEs were summarized. Hematological, biochemical, urinalysis parameters, vital signs and their changes from baseline were summarized over time using n, mean, standard deviation, median and range.

The nature of data set [2]: Phase I human trial: plasma pharmacokinetics of EA-230. Format: in vivo. The settings on record: for tmax: 15-min infusion; for AUC(0-t) / Cmax: plasma, iv.
Text: as §1, §2
Plasma concentration time profiles of EA-230 were analyzed. Pharmacokinetic parameters AUC, clearance, volume of distribution and elimination half-life were obtained for EA-230.
PK samples were collected pre-dose and from 5 minutes to 4 hours after the start of study drug administration.

Data set [3] deals with mice, 25 minutes renal ischemia/reperfusion. The data set is described as follows: Mouse renal ischemia reperfusion test (mortality, BUN/serum urea). Format: in vivo. On the set-up: BUN, mean / Urea level: unit not given here. On the procedure: SEQ ID NO:2 was tested and compared with PBS (control) in a double blind animal study for the peptide's relative ability to aid recovery in a mouse renal ischemia reperfusion test. In this test, the mice were anesthetized, and one kidney from each mouse was removed. The other kidney was tied off for 25 minutes, and the serum urea levels were allowed to increase. Both before and after tying off, the peptide was administered to thirty (30) different mice (5 mg oligopeptide/kg body mass intravenously), after which, the mortality of the mice was determined for each oligopeptide as well as was the BUN concentration at two hours, 24 hours and 72 hours.
Under inhalation anesthesia, the left kidney with its artery and vein was isolated and occluded for 25 minutes using a microvascular clamp. During surgery animals were placed on a heating path to maintain body temperature at 37° C. Five minutes before placing the clamp, and 5 minutes before releasing the clamp, 5 mg/kg of peptide, dissolved in 0.1 mL of sterile saline, was administered intravenously. After reperfusion of the left kidney the right kidney was removed. Kidney function was assessed by measuring blood urea nitrogen before clamping, and at 2, 24, and 72 hours after reperfusion.
To determine dose-response relationships SEQ ID NO:2, was tested in a dose-response manner in the mice test as described above. Peptides were tested at 0.3, 1, 3, 10 and 30 mg/kg dosages given as described in Example I. Serum urea levels are presented in Table 3.

Data set [4] has as its system BALB/c mice injected i.p. with LPS (E. coli 026:B6). Kind of data set: LPS-induced septic shock (endotoxin model) in BALB/c mice. The settings on record: for Survival %: group of 6, 48 hrs. On the set-up: key to Sickness score of individual mouse: 0: No abnormalities.; 1: Percolated fur, but no detectable behavior differences compared to normal mice.; 2: Percolated fur, huddle reflex, responds to stimuli (such as tap on cage), just as active during handling as healthy mouse.; 3: Slower response to tap on cage, passive or docile when handled, but still curious when alone in a new setting.; 4: Lack of curiosity, little or no response to stimuli, quite immobile.; 5: Labored breathing, inability or slow to self-right after being rolled onto back (moribund, sacrificed).; Dead. Format: in vivo, mouse. The procedure:
Mice used in sepsis or septic shock experiments: Female BALB/c mice of 8-12 weeks of age were used for all experiments. The animals were bred in our facility under specific pathogen-free conditions according to the protocols described in the Report of European Laboratory Animal Science Associations (FELASA) Working group on Animal Health (Laboratory Animals 28: 1-24, 1994).
Injection protocols: For the endotoxin model, BALB/c mice were injected i.p. with 150-300 μg LPS (E. coli 026:B6; Difco Lab., Detroit, Mich., USA). Control groups were treated with PBS i.p. only. To test the effect of peptides, they were dissolved in PBS and injected i.p. at predetermined points in time after LPS treatment.
Mice were scored for sickness severity using the following measurement scheme: • 0 No abnormalities. • 1 Percolated fur, but no detectable behavior differences compared to normal mice. • 2 Percolated fur, huddle reflex, responds to stimuli (such as tap on cage), just as active during handling as healthy mouse. • 3 Slower response to tap on cage, passive or docile when handled, but still curious when alone in a new setting. • 4 Lack of curiosity, little or no response to stimuli, quite immobile. • 5 Labored breathing, inability or slow to self-right after being rolled onto back (moribund, sacrificed). • D Dead […]
A comparative trial was set up to compare peptide MTR and SEQ ID NO:2. The comparative trial comprised 6 groups of 6 animals; two groups (1A and 1B) receiving placebo (PBS), one group (2) peptide MTR (source Pepscan, Lelystad, NL), one group (3) receiving peptide MTR (source Ansynth), one group (4) receiving peptide SEQ ID NO:2 (source Pepscan) and one group peptide SEQ ID NO:2 (source Ansynth). Peptide/placebo in these groups was administered 2 hours after LPS. LPS (source) was used at 10-11 mg/kg. Sickness scores were done at 0, 2, 22 26 42 and 48 hours after LPS injection.

Where [5] appears, read: 1 mg/kg, 1 mg/kg i.v. 2-min infusion, N = 6, arithmetic mean ± SD.
The mark [6] stands for this setting: 3 mg/kg, 3 mg/kg i.v. 2-min infusion, N = 6, arithmetic mean ± SD.
The mark [7] stands for this setting: 10 mg/kg, 10 mg/kg i.v. 15-min infusion, N = 6, arithmetic mean ± SD.
[8] abbreviates: 10 mg/kg, Part 2, LPS + 10 mg/kg i.v. 15-min infusion, arithmetic mean ± SD.
Setting [9] is: 30 mg/kg, 30 mg/kg i.v. 15-min infusion, N = 6, arithmetic mean ± SD.

“And” between values parts separate entries of the source, which are not always exact repeats. Equal values may be shown once. Peptide text beside a SMILES is read from it.

For orientation: AUC(0-t) means exposure summed from dosing to a finite time, without extrapolation to infinity. A word on the Cmax: it is the peak of the concentration-time curve. Take `CC(C)[C@H](NC(=O)CNC(=O)[C@H](CCC(N)=O)NC(=O)[C@H](C)N)C(=O)O` [EA-230, H-Ala-Gln-Gly-Val-OH.xAcOH] (H-AQGV-OH): the “AE occurrence, placebo vs active subjects” value in data set [1] is given as “No difference in AE occurrence”. Moreover, the “safety and tolerability of a single dose” value in data set [1] (1 mg/kg to 30 mg/kg i.v.) is “safe and well tolerated”. In addition, in data set [1] (escalating dose part 1-30 mg/kg), the “number or intensity of AEs with the dose” value was “No increase in the number or intensity of AEs”. Further, the QTc result in data set [1] (whole study) was “No abnormal QTc”. The “serious adverse events (SAE)” value in data set [1] (whole study) is reported as “No SAE occurred”. Besides, the tmax in data set [2] (10 mg/kg EA-230 alone) is on record as 5 minutes before the end of infusion; in data set [2] (most subjects, 10 mg/kg EA-230 with LPS challenge), 10 minutes before the end of infusion. Moreover, the “time by which average plasma concentrations were below LOQ” value in data set [2] (1-mg/kg dose) was no more than 15 min; in data set [2] (30-mg/kg dose, after dosing), no more than 120 min. In addition, the AUC(0-t) in data set [2] (setting [5]) was 2.5 ng·h/mL; in data set [2] (setting [6]), 11.8 ng·h/mL; in data set [2] (setting [7]) it was 217 ng·h/mL; in data set [2] (setting [8]), 303 ng·h/mL; in data set [2] (setting [9]) it was 595 ng·h/mL. Moreover, the Cmax in data set [2] (setting [5]) was 32.5 ng/mL; in data set [2] (setting [6]) it was 132 ± 76.4 ng/mL; in data set [2] (setting [7]) it was 1600 ± 1130 ng/mL; in data set [2] (setting [8]), 1710 ± 1330 ng/mL; in data set [2] (setting [9]) it was 3220 ± 1080 ng/mL. Moreover, the elimination from plasma entry in data set [2] (single i.v. dose 1-30 mg/kg) is recorded as “rapidly eliminated”.
With AQG, the Urea level was found to be 38.4 in data set [3] (0.3 mg/kg, 24 h); 30.4 in data set [3] (0.3 mg/kg, 72 h); 48.4 in data set [3] (1.0 mg/kg, 24 h); 38.4 in data set [3] (1.0 mg/kg, 72 h); 39.3 in data set [3] (3.0 mg/kg, 24 h); 40.3 in data set [3] (3.0 mg/kg, 72 h). For the same compound, the Urea level is reported as 46.8 in data set [3] (10.0 mg/kg, 24 h); 25.8 in data set [3] (10.0 mg/kg, 72 h); 52.8 in data set [3] (30.0 mg/kg, 24 h); 58.9 in data set [3] (30.0 mg/kg, 72 h).
As for MTR, the “Sickness score of individual mouse” value in data set [4] (source Ansynth (#Ansynth 12/46) 2 hours after LPS 10-11 mg/kg, 0 hrs (before peptide)) is 0; in data set [4] (source Ansynth (#Ansynth 12/46) 2 hours after LPS 10-11 mg/kg, 2 hrs (at peptide administration)), 2; in data set [4] (source Ansynth (#Ansynth 12/46) 2 hours after LPS 10-11 mg/kg, 22 hrs), 2 (4×) and 4 and 3; in data set [4] (source Ansynth (#Ansynth 12/46) 2 hours after LPS 10-11 mg/kg, 26 hrs), 1 and 2 (2×) and 5 and 4 and 3; in data set [4] (source Ansynth (#Ansynth 12/46) 2 hours after LPS 10-11 mg/kg, 42 hrs), 1 and 2 (2×) and dead and 4 and 5; in data set [4] (source Ansynth (#Ansynth 12/46) 2 hours after LPS 10-11 mg/kg, 48 hrs), 1 (2×) and dead (2×) and 2. Moreover, the “Sickness score of individual mouse” value is 0 in data set [4] (source Pepscan (#970/#971) 5 mg/kg 2 hours after LPS 10-11 mg/kg, 0 hrs (before peptide)); 2 in data set [4] (source Pepscan (#970/#971) 5 mg/kg 2 hours after LPS 10-11 mg/kg, 2 hrs (at peptide administration)); “dead and 3 and 2 (3×) and 4” in data set [4] (source Pepscan (#970/#971) 5 mg/kg 2 hours after LPS 10-11 mg/kg, 22 hrs); 3 and 2 (3×) and 5 in data set [4] (source Pepscan (#970/#971) 5 mg/kg 2 hours after LPS 10-11 mg/kg, 26 hrs); 5 and 2 (2×) and 4 and dead in data set [4] (source Pepscan (#970/#971) 5 mg/kg 2 hours after LPS 10-11 mg/kg, 42 hrs); “dead (2×) and 2 (2×)” in data set [4] (source Pepscan (#970/#971) 5 mg/kg 2 hours after LPS 10-11 mg/kg, 48 hrs). For the same compound, the Survival % in data set [4] (source Ansynth (#Ansynth 12/46) 2 hours after LPS 10-11 mg/kg) turned out to be 50%; in data set [4] (source Pepscan (#970/#971) 5 mg/kg 2 hours after LPS 10-11 mg/kg), 33%.

The record behind these values is patent US8680059B2, “Oligopeptide acetate and formulations thereof” (Biotempt B.V., priority 1998, dated 2014).
